{
  "source": "patent US10570180B2",
  "about": "“Anti-bacterial agents and their use in therapy” (priority 2015, dated 2020)",
  "key": {"[1]": {"system": "A. baumanii ATCC 19606", "assay": "MIC assay of antibiotics with ATX-101", "type": "cell-based", "details": "for MIC: Acinetobacter baumannii; for Est MIC: A. baumanii ATCC 19606", "procedure": "(§1) The APIM peptide was dissolved in Mueller-Hinton broth to 1.25 times of the desired assay concentration. Antibiotics were dissolved in Mueller-Hinton broth and Mueller-Hinton broth with APIM at a concentration of 1.25 times the highest desired assay concentrations. Antibiotics were pharmaceutical grade purchased from Sigma-Aldrich.\n(§2) Two-fold serial dilutions of antibiotics were made in Mueller-Hinton with different concentrations of APIM, and the solutions were placed in four parallel wells in Nunc 384-well micro plates (30 μl per well in Nunc 242757 microplates). A group of 8 wells with no addition of antibiotics for each APIM concentration was included on each micro plate as growth reference.\n(§3) At the day of analysis, overnight TSB cultures inoculated freeze stocks (6 ml in 50 ml tube tilted to 45-degrees angle, 200 rpm, 2.5 cm amplitude, 37° C.) were diluted in TSB until the OD600 was 0.10, and further diluted 1:40 in Mueller-Hinton broth. Each well in the 384-well assay plates was inoculated with 7.5 μl of the diluted culture. The microplates were placed in plastic bags and incubated without shaking at 37° C. The optical density at 600 nm in the microwells was measured after approximately 19 hours of incubation, and the relative growth yield in each well was calculated based on the growth in the reference groups. The MIC value was set to the highest concentration giving less than 30% growth in all 4 parallel wells within the sample groups. The microplates were further incubated for 6 hours, and optical density in the cultures was measured once more for confirmation of the estimated MIC-values."}, "[2]": {"system": "E. faecium CTC 492", "assay": "MIC assay of antibiotics with ATX-101", "type": "cell-based, Enterococcus faecium", "details": "Enterococcus faecium, CTC492, E. faecium CTC 492, read-out: Est MIC", "procedure": "The minimum inhibitory concentration (MIC) of ATX-101 (SEQ ID NO: 1289) was determined for various gram negative and gram positive bacteria. The bacteria, Pseudomonas aeruginosa ATCC 15692, Acinetobacter baumenni ATCC 19600, Escherichia coli ATCC 25922, Pseudomonas aeruginosa TO-5A (clinical isolate), Enterococous faecium CCUG 37832, Enterococcus faecium CTC 492, Micrococcus luteus ATCC 9341 and Escherichie coli NCIMB 12210 were grown in the presence of various concentrations of ATX-101 and/or antibiotic.\nas §1, with “ATX-101” for “The APIM peptide”, “ATX-101” for “APIM”\n(§4) Two-fold serial dilutions of antibiotics were made in Mueller-Hinton with different concentrations of ATX-101, and the solutions were placed in four parallel wells is Nunc 384-well micro plates (30 μl per well in Nunc 242757 microplates). A group of 8 wells with no addition of antibiotics for each ATX-101 concentration was included on each micro plate as a growth reference.\nas §3, with “cultures inoculated from freeze stocks” for “cultures inoculated freeze stocks”, “until the OD800 was 0.10,” for “until the OD600 was 0.10,”, “the diluted culture, giving the same dilution of the culture in the assay cultures. The microplates” for “the diluted culture. The microplates”, “growth yield was calculated” for “growth yield in each well was calculated”\nas §1, §2, §3"}, "[3]": {"system": "E. faecium CCUG 37832 (TO-3)", "type": "cell-based, Enterococcus faecium", "details": "CCUG 37832", "procedure": "as §1, with “ATX-101” for “The APIM peptide”, “ATX-101” for “APIM”\nas §4\nas §3, with “cultures inoculated from freeze stocks” for “cultures inoculated freeze stocks”, “until the OD800 was 0.10,” for “until the OD600 was 0.10,”, “the diluted culture, giving the same dilution of the culture in the assay cultures. The microplates” for “the diluted culture. The microplates”, “growth yield was calculated” for “growth yield in each well was calculated”\nAccordingly, concentrations of 8 μg/ml and 16 μg/ml of ATX-101 were combined with various antibiotics selected from; 2,4-Diamin, S. methizol, S. methoxa, S. dimetho, Surfaceta, Trimeth, Flumeq, Levoflox, Pruliflox, Metronid and Nitrofur.\n(§5) The MICS for various APIM peptides were determined for various bacteria, as described above."}, "[4]": {"system": "Staphylococcus aureus MRSA 1040s", "assay": "microbe, parasite or virus in culture", "type": "cell-based", "details": "for MIC: 1040s; for MIC of Erythromycin (Relative values): concentration of APIM peptide 15 μg/ml, MRSA 1040s", "procedure": "as §1, with “ATX-101” for “The APIM peptide”, “ATX-101” for “APIM”\nas §4\nas §3, with “cultures inoculated from freeze stocks” for “cultures inoculated freeze stocks”, “until the OD800 was 0.10,” for “until the OD600 was 0.10,”, “the diluted culture, giving the same dilution of the culture in the assay cultures. The microplates” for “the diluted culture. The microplates”, “growth yield was calculated” for “growth yield in each well was calculated”\nas §1, §2, §3\nIn view of the anti-bacterial effect of ATX-101 on strains of MRSA, the MIC for a variety of APIM variants was determined using Staphylococcus aureus MRSA 1040s. […] A cell penetrating peptide (SEQ ID NO: 337) present in all of the APIM peptides, was used as a negative control.\nNext, the effect of APIM peptides on the MIC of antibiotics was determined using Staphylococcus aureus MRSA 1040s.\nas §5"}, "[5]": {"system": "Staphylococcus aureus NCTC 6571", "type": "cell-based", "details": "NCTC 6571", "procedure": "as §1, with “ATX-101” for “The APIM peptide”, “ATX-101” for “APIM”\nas §4\nas §3, with “cultures inoculated from freeze stocks” for “cultures inoculated freeze stocks”, “until the OD800 was 0.10,” for “until the OD600 was 0.10,”, “the diluted culture, giving the same dilution of the culture in the assay cultures. The microplates” for “the diluted culture. The microplates”, “growth yield was calculated” for “growth yield in each well was calculated”\nas §5"}, "[6]": {"system": "E. faecium TO-12", "type": "cell-based", "procedure": "as §1, with “ATX-101” for “The APIM peptide”, “ATX-101” for “APIM”\nas §4\nas §3, with “cultures inoculated from freeze stocks” for “cultures inoculated freeze stocks”, “until the OD800 was 0.10,” for “until the OD600 was 0.10,”, “the diluted culture, giving the same dilution of the culture in the assay cultures. The microplates” for “the diluted culture. The microplates”, “growth yield was calculated” for “growth yield in each well was calculated”\nas §5"}},
  "note": "Like-named read-outs stand apart in the source and are kept apart here. Ends that are not written are not given here.",
  "data": [
    {"compound": "CO[C@H]1/C=C/O[C@@]2(C)Oc3c(C)c(O)c4c(O)c(c(/C=N/N5CCN(C)CC5)c(O)c4c3C2=O)NC(=O)/C(C)=C\\C=C\\[C@H](C)[C@H](O)[C@@H](C)[C@@H](O)[C@@H](C)[C@H](OC(C)=O)[C@@H]1C", "note": "[Rifampicin]", "values": [
      {"measurement": "MIC", "setting": "[1]; ATCC19606, A. baumanii ATCC 19606, APIM (ATX-101) conc. 2 μg/ml, read-out: Est MIC", "value": 2, "unit": "µg/mL"},
      {"measurement": "MIC", "setting": "[1]; ATCC19606, A. baumanii ATCC 19606, APIM (ATX-101) conc. 4 μg/ml, read-out: Est MIC", "value": 1, "unit": "µg/mL"},
      {"measurement": "MIC", "setting": "[1]; ATCC19606, A. baumanii ATCC 19606, APIM (ATX-101) conc. 8 μg/ml, read-out: Est MIC", "value": 1, "unit": "µg/mL"},
      {"measurement": "MIC", "setting": "[1]; ATCC19606, A. baumanii ATCC 19606, APIM conc. 0 μg/ml, read-out: Est MIC", "value": 2, "unit": "µg/mL"},
      {"measurement": "MIC", "setting": "[2]; APIM (ATX-101) conc. 6.5 μg/ml", "value": 32, "unit": "µg/mL"},
      {"measurement": "MIC", "setting": "[2]; APIM (ATX-101) conc. 13 μg/ml", "value": 4, "unit": "µg/mL"},
      {"measurement": "MIC", "setting": "[2]; APIM (ATX-101) conc. 20 μg/ml", "value": 8, "unit": "µg/mL"},
      {"measurement": "MIC", "setting": "[2]; APIM conc. 0 μg/ml", "value": 16, "unit": "µg/mL"}
    ]},
    {"compound": "NC[C@H]1O[C@H](O[C@H]2[C@H](O)[C@@H](O[C@H]3O[C@H](CO)[C@@H](O)[C@H](N)[C@H]3O)[C@H](N)C[C@@H]2N)[C@H](N)C[C@@H]1O", "note": "[Tobramycin]", "values": [
      {"measurement": "MIC", "setting": "[2]; APIM (ATX-101) conc. 6.5 μg/ml", "value": 64, "unit": "µg/mL"},
      {"measurement": "MIC", "setting": "[2]; APIM (ATX-101) conc. 13 μg/ml", "value": 32, "unit": "µg/mL"},
      {"measurement": "MIC", "setting": "[2]; APIM conc. 0 μg/ml", "value": 64, "unit": "µg/mL"}
    ]},
    {"compound": "CN[C@H](CC(C)C)C(=O)N[C@H]1C(=O)N[C@@H](CC(N)=O)C(=O)N[C@H]2C(=O)N[C@H]3C(=O)N[C@H](C(=O)N[C@H](C(=O)O)c4cc(O)cc(O)c4-c4cc3ccc4O)[C@H](O)c3ccc(c(Cl)c3)Oc3cc2cc(c3O[C@@H]2O[C@H](CO)[C@@H](O)[C@H](O)[C@H]2O[C@H]2C[C@](C)(N)[C@H](O)[C@H](C)O2)Oc2ccc(cc2Cl)[C@H]1O", "note": "[Vancomycin]", "values": [
      {"measurement": "MIC", "setting": "[1]; ATCC19606, read-out: Est MIC, A. baumanii ATCC 19606, APIM (ATX-101) conc. 2 μg/ml", "value": 32, "unit": "µg/mL"},
      {"measurement": "MIC", "setting": "[1]; ATCC19606, read-out: Est MIC, A. baumanii ATCC 19606, APIM (ATX-101) conc. 4 μg/ml", "value": 16, "unit": "µg/mL"},
      {"measurement": "MIC", "setting": "[1]; ATCC19606, read-out: Est MIC, A. baumanii ATCC 19606, APIM conc. 0 μg/ml", "value": 32, "unit": "µg/mL"}
    ]},
    {"compound": "Gentamicin", "values": [
      {"measurement": "Est MIC", "setting": "[1]; APIM (ATX-101) conc. 2 μg/ml", "value": 16, "unit": "µg/mL"},
      {"measurement": "Est MIC", "setting": "[1]; APIM (ATX-101) conc. 4 μg/ml", "value": 8, "unit": "µg/mL"},
      {"measurement": "Est MIC", "setting": "[1]; APIM conc. 0 μg/ml", "value": 16, "unit": "µg/mL"}
    ]},
    {"compound": "MDRFLSKWKKKRKIRRRRRRRRRRR [SEQ ID NO: 1301]", "values": [
      {"measurement": "MIC", "setting": "[3]", "value": 7.5, "unit": "µM"},
      {"measurement": "MIC", "setting": "[4]", "value": 7.5, "unit": "µM"},
      {"measurement": "MIC", "setting": "[5]", "value": 37.9, "unit": "µM"},
      {"measurement": "MIC", "setting": "[6]", "value": 25.3, "unit": "µM"}
    ]},
    {"compound": "MDRFSLKWKKKRKIRRRRRRRRRRR [SEQ ID NO: 1304]", "values": [
      {"measurement": "MIC", "setting": "[3]", "value": 7.5, "unit": "µM"},
      {"measurement": "MIC", "setting": "[4]", "value": 7.5, "unit": "µM"},
      {"measurement": "MIC", "setting": "[5]", "value": 37.9, "unit": "µM"},
      {"measurement": "MIC", "setting": "[6]", "value": 25.3, "unit": "µM"}
    ]},
    {"compound": "MDRWLSKWKKKRKIRRRRRRRRRRR [SEQ ID NO: 1302]", "values": [
      {"measurement": "MIC", "setting": "[3]", "value": 7.5, "unit": "µM"},
      {"measurement": "MIC of Erythromycin (Relative values)", "setting": "[4]", "value": 200},
      {"measurement": "MIC", "setting": "[5]", "value": 37.9, "unit": "µM"},
      {"measurement": "MIC", "setting": "[6]", "value": 16.8, "unit": "µM"}
    ]},
    {"compound": "MDRWLTKWKKKRKIRRRRRRRRRRR [SEQ ID NO: 1300]", "values": [
      {"measurement": "MIC", "setting": "[3]", "value": 7.5, "unit": "µM"},
      {"measurement": "MIC of Erythromycin (Relative values)", "setting": "[4]", "value": 100},
      {"measurement": "MIC", "setting": "[5]", "value": 37.9, "unit": "µM"},
      {"measurement": "MIC", "setting": "[6]", "value": 25.3, "unit": "µM"}
    ]}
  ]
}
